Experimental data: patent publication US20110251379A1, “COMPOUNDS USEFUL FOR TREATING NEURODEGENERATIVE DISORDERS” (Satori Pharmaceuticals, Inc., priority 2010, published 2011)
Read-outs that look alike come from different tables or passages of the source.

Test system: amyloid-beta (1-42) peptide
Assay: ELISA assay of amyloid-beta (1-42) in conditioned media of 2B7 cells
Format: cell-based
Details: for IC50: Aβ-42, 2B7 cells, 5 hours, read-out: IC50 range; for inhibition at 10 µM: Aβ-42, 10 umol/L; for inhibition at 10 µM / inhibition at 100 µM: read-out: % Inhibition (range)
Outline: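 2B7 cells were treated with compounds for 5 hours at 37° C in media with 1% DMSO. Conditioned media, diluted 1:2 in blocking buffer, went into a sandwich ELISA with 6E10 capture and an HRP-labelled detection antibody, read by TMB at 450 nm. Values came from an Aβ peptide standard curve.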

Row | Compound | IC50 [µM] | further results
1 | CC(=O)O[C@@H]([C@H]1C[C@@H](C)C2C(O1)[C@H](O)[C@@]1(C)[C@@H]3CC[C@H]4C(C)(C)[C@@H](O[C@H]5CN(O)CCO5)CC[C@@]45C[C@@]35CC[C@]21C)C(C)(C)O (stereo partly shown) |  | IC50 (5 h): ≤ 1 µM
2 | CC(=O)O[C@@H]([C@H]1C[C@@H](C)[C@H]2[C@H](O1)[C@H](O)[C@@]1(C)[C@@H]3CC[C@H]4C(C)(C)[C@@H](O[C@H]5CN(CC(F)(F)F)CCO5)CC[C@@]45C[C@@]35CC[C@]21C)C(C)(C)O |  | IC50 (5 h): ≤ 1 µM
3 | CC(=O)O[C@@H]([C@H]1C[C@@H](C)C2C(O1)[C@H](O)[C@@]1(C)[C@@H]3CC[C@H]4C(C)(C)[C@@H](O[C@H]5CN(C)CCO5)CC[C@@]45C[C@@]35CC[C@]21C)C(C)(C)O (stereo partly shown) |  | IC50 (5 h): ≤ 1 µM
4 | CC(=O)O[C@@H]([C@H]1C[C@@H](C)C2C(O1)[C@H](O)[C@@]1(C)[C@@H]3CC[C@H]4C(C)(C)[C@@H](OC5CN(C6CCCC6)CCO5)CC[C@@]45C[C@@]35CC[C@]21C)C(C)(C)O (stereo partly shown) |  | IC50 (5 h): ≤ 1 µM
5 | CC(=O)OC(C1CC(C)C2C(O1)C(O)C1(C)C3CCC4C(C)(C)C(OC(=O)C5(C)COC5)CCC45CC35CCC21C)C(C)(C)O (stereo not shown) | ≤ 1 | 
6 | CC1CC(C(O)C(C)(C)O)OC2C1C1(C)CCC34CC35CCC(OC3CN(CCF)CCO3)C(C)(C)C5CCC4C1(C)C2O (stereo not shown) |  | % Inhibition (range) (Aβ-42, 100 umol/L): F (% inhibition of <25%)
7 | C[C@@H]1C(O)CO[C@@]2(O)C[C@H]3[C@@H]4CC=C5C[C@@H](O[Si](C)(C)C(C)(C)C)CC[C@]5(C)[C@H]4CC[C@]3(C)[C@@H]12 (stereo partly shown) |  | inhibition at 10 µM: < 25%
8 | CC1CC(C(=O)N2CCC2)OC2C1C1(C)CCC34CC35CCC(O)C(C)(C)C5CCC4C1(C)C2O (stereo not shown) | > 10 | 
9 | CC1CC(CO)OC2C1C1(C)CCC34CC35CCC(OC3OCC(O)C(O)C3O)C(C)(C)C5CCC4C1(C)C2O (stereo not shown) [drawing 783] | 1 to 10 | 
10 | C[C@@H]1C[C@H](CO)OC2C1[C@@]1(C)CC[C@@]34C[C@@]35CC[C@H](O)C(C)(C)[C@@H]5CC[C@H]4[C@]1(C)[C@H]2O (stereo partly shown) |  | inhibition at 100 µM (Aβ-42, 100 umol/L): < 25%
11 | CC1CC(C(=O)O)OC2C1C1(C)CCC34CC35CCC(O)C(C)(C)C5CCC4C1(C)C2O (stereo not shown) [drawing 803] | > 10 | 
12 | CC(=O)OCC1CC(C)C2C(O1)C(O)C1(C)C3CCC4C(C)(C)C(OC5OCC(O)C(O)C5O)CCC45CC35CCC21C (stereo not shown) [drawing 792] | 1 to 10 | 
13 | CC(=O)OCC1CC(C)C2C(O1)C(O)C1(C)C3CCC4C(C)(C)C(OC(=O)c5cccnc5)CCC45CC35CCC21C (stereo not shown) [drawing 832] | 1 to 10 | 
14 | CC(=O)O[C@@H]([C@H]1C[C@@H](C)[C@H]2[C@H](O1)[C@H](O)[C@@]1(C)[C@@H]3CC[C@H]4C(C)(C)[C@@H](O[C@H]5CN(C6CCC6)CCO5)CC[C@@]45C[C@@]35CC[C@]21C)C(C)(C)O |  | IC50 (5 h): ≤ 1 µM
15 | CC(=O)N(CC1CC(C)C2C(O1)C(O)C1(C)C3CCC4C(C)(C)C(O)CCC45CC35CCC21C)CC(C)(C)O (stereo not shown) | > 10 | 
16 | CC1CC(C(O)C(C)(C)O)OC2C1C1(C)CCC34CC35CCC(OC3CN(C6CC6)CCO3)C(C)(C)C5CCC4C1(C)C2O (stereo not shown) |  | % Inhibition (range) (Aβ-42, 100 umol/L): F (% inhibition of <25%)
17 | CC1CC(C(O)C(C)(C)O)OC2C1C1(C)CCC34CC35CCC(OC3CN(C(=O)CC6CCC6)CCO3)C(C)(C)C5CCC4C1(C)C2O (stereo not shown) |  | % Inhibition (range) (Aβ-42, 20 umol/L): E (% inhibition of 25-75%); % Inhibition (range) (Aβ-42, 100 umol/L): F (% inhibition of <25%)
18 | CC1CC(CN(C2COC2)S(C)(=O)=O)OC2C1C1(C)CCC34CC35CCC(O)C(C)(C)C5CCC4C1(C)C2O (stereo not shown) | > 10 | 
19 | CC(=O)N(Cc1ccccn1)CC1CC(C)C2C(O1)C(O)C1(C)C3CCC4C(C)(C)C(O)CCC45CC35CCC21C (stereo not shown) [drawing 841] | 1 to 10 | 
20 | CC(=O)N(Cc1cc(F)cc(F)c1)CC1CC(C)C2C(O1)C(O)C1(C)C3CCC4C(C)(C)C(OC(=O)c5cccnc5)CCC45CC35CCC21C (stereo not shown) | 1 to 10 | 

Row | Compound | IC50 [µM] | further results
21 | CCC(=O)OC(C1CC(C)C2C(O1)C(O)C1(C)C3CCC4C(C)(C)C(OC5OCC(O)C(O)C5O)CCC45CC35CCC21C)C(C)(C)O (stereo not shown) | ≤ 1 | 
22 | CC(=O)N(Cc1cc(F)cc(F)c1)CC1CC(C)C2C(O1)C(O)C1(C)C3CCC4C(C)(C)C(OC(=O)C5CNC5)CCC45CC35CCC21C (stereo not shown) [drawing 856] | 1 to 10 | 
23 | CC(=O)O[C@@H]([C@H]1C[C@@H](C)C2C(O1)[C@H](O)[C@@]1(C)[C@@H]3CC[C@H]4C(C)(C)[C@@H](OC(=O)CN(C)C)CC[C@@]45C[C@@]35CC[C@]21C)C(C)(C)O (stereo partly shown) |  | IC50 (5 h): ≤ 1 µM
24 | CC(=O)N(CC1CC(C)C2C(O1)C(O)C1(C)C3CCC4C(C)(C)C(O)CCC45CC35CCC21C)C(C)c1ccccc1 (stereo not shown) [drawing 844] | < 10 | 
25 | CC1CC(C(OC(=O)C2CC2)C(C)(C)O)OC2C1C1(C)CCC34CC35CCC(O)C(C)(C)C5CCC4C1(C)C2O (stereo not shown) [drawing 853] | ≤ 1 | 
26 | CC(=O)O[C@@H]([C@H]1C[C@@H](C)C2=C(O1)C(=O)[C@@]1(C)[C@@H]3CC[C@H]4C(C)(C)C(=O)CC[C@@]45C[C@@]35CC[C@]21C)C(C)(C)O |  | inhibition at 10 µM: < 25%
27 | CC1CC(C(O)C(C)(C)O)OC2C1C1(C)CCC34CC35CCC(OC3CN(C(=O)CC6CCOCC6)CCO3)C(C)(C)C5CCC4C1(C)C2O (stereo not shown) |  | % Inhibition (range) (Aβ-42, 20 umol/L): F (% inhibition of <25%)
28 | CC1CC(CNC(C)(C)C)OC2C1C1(C)CCC34CC35CCC(O)C(C)(C)C5CCC4C1(C)C2O (stereo not shown) | > 10 | 
29 | CC(=O)O[C@@H]([C@H]1C[C@@H](C)C2C(O1)[C@H](O)[C@@]1(C)[C@@H]3CC[C@H]4C(C)(C)[C@H](NO)CC[C@@]45C[C@@]35CC[C@]21C)C(C)(C)O (stereo partly shown) |  | IC50 (5 h): 1 to 10 µM
30 | CC1CC(C(O)C(C)(C)O)OC2C1C1(C)CCC34CC35CCC(OC3CN(CCCC(=O)O)CCO3)C(C)(C)C5CCC4C1(C)C2O (stereo not shown) | > 10 | % Inhibition (range) (Aβ-42, 20 umol/L): E E (% inhibition of 25-75%); % Inhibition (range) (Aβ-42, 100 umol/L): E E (% inhibition of 25-75%)
31 | COC(=O)N(CC1CC(C)C2C(O1)C(O)C1(C)C3CCC4C(C)(C)C(O)CCC45CC35CCC21C)C(C)(C)C (stereo not shown) | > 10 | 
32 | CO[C@@H]1[C@@H](OC)[C@H](O[C@H]2CC[C@]34C[C@]35CC[C@]3(C)C6C(O[C@@H]([C@H](OC(C)=O)C(C)(C)O)C[C@H]6C)[C@H](O)[C@@]3(C)[C@@H]5CC[C@H]4C2(C)C)OC[C@H]1OC (stereo partly shown) [drawing 937] | < 10 | 
33 | CC(=O)OC(C1CC(C)C2C(O1)C(O)C1(C)C3CCC4C(C)(C)C(OC(=O)C5CNC5)CCC45CC35CCC21C)C(C)(C)O (stereo not shown) [drawing 791] | ≤ 1 | 
34 | CCN1CCOC(OC2CCC34CC35CCC3(C)C6C(C)CC(C(OC(C)=O)C(C)(C)O)OC6C(OC(C)=O)C3(C)C5CCC4C2(C)C)C1 (stereo not shown) | > 10 | 
35 | CC(=O)O[C@@H]([C@H]1C[C@@H](C)[C@H]2[C@H](O1)[C@H](O)[C@@]1(C)[C@@H]3CC[C@H]4C(C)(C)[C@@H](O[C@H]5CN(S(C)(=O)=O)CCO5)CC[C@@]45C[C@@]35CC[C@]21C)C(C)(C)O |  | IC50 (5 h): ≤ 1 µM
36 | CC(=O)OC(C1CC(C)C2C(O1)C(OC(N)=O)C1(C)C3CCC4C(C)(C)C(O)CCC45CC35CCC21C)C(C)(C)O (stereo not shown) | > 10 | 
37 | CC1CC(CN2CCCC2=O)OC2C1C1(C)CCC34CC35CCC(O)C(C)(C)C5CCC4C1(C)C2O (stereo not shown) | > 10 | 
38 | CCC(=O)O[C@@H]([C@H]1C[C@@H](C)C2C(O1)C(O)[C@@]1(C)[C@@H]3CC[C@H]4C(C)(C)[C@@H](O[C@@H]5OC[C@@H](O)[C@H](O)[C@H]5O)CC[C@@]45C[C@@]35CC[C@]21C)C(C)(C)O (stereo partly shown) |  | IC50 (5 h): ≤ 1 µM; inhibition at 100 µM (Aβ-42, 100 umol/L): 25 to 75%
39 | CC(=O)N(Cc1ccncc1)CC1CC(C)C2C(O1)C(O)C1(C)C3CCC4C(C)(C)C(O)CCC45CC35CCC21C (stereo not shown) | > 10 | 
